Like-named read-outs stand apart in the source and are kept apart here.
Columns and labels:
[1] = Serum pharmacokinetics of DHM after PO and IP administration; assay type: in vivo, mice; details: for Tmax / half-life / Cmax / AUC(0-t): C57BL/6J, mouse, serum; for half-life: read-out: Serum T1/2 (converted); for IP AUC0→24 relative to PO AUC0→24: DHM 50 mg/kg; for Cmax / AUC(0-t): 50 mg/kg; for AUC(0-t): read-out: Serum AUC0→24
Method: (§1) Eight-week-old male and female C57BL/6J mice (Jackson’s Laboratories, Bar Harbor, ME, USA) were housed 4 mice to a cage (separated by sex) and maintained on 12-h light, 12-h dark cycles (lights on at 0700 h) in the animal facility at the Department of Animal Sciences, Rutgers University. Following 1-week acclimation, animals were given ad libitum access to water and a polyphenol-free diet (PFD; 3.82 kcal/g, 10% fat, 20% protein, 70% carbohydrate; D12450H; Research Diets, Inc., New Brunswick, NJ, USA) for at least 10 days. For PK studies, after an overnight fast, mice were administered 50 mg/kg DHM (dissolved in 0.9% saline with 10% DMSO) by either IP injection or oral gavage. Oral gavage was performed using single-use, sterile plastic feeding tubes for mice (20 ga × 30 mm; cat# FTP-20-30, Instech Laboratories, (Plymouth Meeting, PA, USA). Mice were deeply anesthetized with 5% isoflurane mixed with oxygen, and blood was collected by cardiac puncture. Following cardiac puncture, animals were exsanguinated and transcardial perfusion with 0.9% saline was performed to ensure blood removal from the brain tissue. Blood and brain samples were collected from a total of 85 mice at 0.25, 0.75, 1.5, 3, 6, 12, 24 h (3–4 mice for each sex and timepoint). Tissues were immediately homogenized with 0.2% formic acid at 1:2 (w/v), and frozen at −80 °C until analysis. Blood was centrifuged at 3000× g for 10 min at 4 °C to isolate serum. For efficacy studies, mice (n = 8/sex) were fasted at 5 h prior to Ethanol gavage 5 g/kg (37% Ethanol in water). DHM 50 mg/kg IP (dissolved in 0.9% saline with 10% DMSO) was administered at 0, 15, 45, 90 and 180 min prior to Ethanol oral gavage. Each mouse was tested at each time point 7 days apart over 6-week period. At the time of Ethanol gavage, mice were placed in oversized conical holders (L: 152 mm X W: 37 mm) and observed for ability to return upright upon being placed in a supine position. Duration of LORR was determined by ability to return upright 3 times within 30 s. To determine whether ethanol-induced tolerance developed, one week (Week 1; Baseline) prior to the 6-week repeated DHM dosing study all mice were oral dose with ethanol (5 g/kg) without any IP injection and LORR was measured. Mice were then re-tested in a similar fashion with oral ethanol 1 week after the DHM 6-week period (Week 8; Post). […] All animal studies were approved by the Institutional Animal Care and Use Committee of Rutgers University (Bello; PROTO999900014, OLAW #A3262-01, 15 March 2017) and complied with NIH Guide for the Care and Use of Laboratory Animals.
All serum samples were stored at −80 °C and conditioned to room temperature prior to analysis. An aliquot of 100 µL of serum, 20 µL 4M HCl, and 50 µL of internal standard (IS) solution (417 ng/mL isoquercetin in EtOAc) were combined in an Eppendorf tube. An aliquot of 500 µL of EtOAc was added and samples were vortexed for 30 s. Samples were then centrifuged at 3000× g for 2 min and the supernatant transferred to a glass vial. Samples were extracted 2 more times with EtOAc and the supernatant added to the corresponding vial containing 10 µL of 2% ascorbic acid in methanol (MeOH). Samples were then dried under vacuum, reconstituted with 100 µL of 45% MeOH in water with 0.1% formic acid (FA), centrifuged at 16,000× g for 10 min and transferred to an HPLC vial for analysis.
(§2) An Agilent 1290 Infinity II UPLC system interfaced with an Agilent 6470 Triple Quadrupole Mass Spectrometer with an electrospray ionization source (Agilent Technology, Palo Alto, CA, USA) was used for sample analysis. An Waters Acquity UPLC BEH C8 column (2.1 × 150 mm, 1.7 μm) (Milford, MA, USA) column with a VanGuard Acquity C8 guard column (2.1 × 5 mm, 1.7 μm) (Milford, MA, USA) was used for chromatographic separation. The binary mobile phases consisted of water with 0.1% FA (phase A) and acetonitrile (ACN) with 0.1% formic acid (phase B). The flow rate was set at 0.450 mL/min. […]

[2] = Quantification of DHM in brain samples; assay type: in vivo, mice; details: for Brain Concentration 15 min post DHM: mean ± SEM
Method: as §1
Whole brain samples were homogenized in FA. All brain homogenates were stored at −80 °C and conditioned to room temperature prior to analysis. An aliquot of 300 µL of brain homogenate was added to 50 µL IS solution (417 ng/mL in EtOAc) and 500 µL of EtOAc in an Eppendorf tube. Samples were then vortexed for 30 s and sonicated for 1 min. Samples were centrifuged for 2 min at 3000× g and the supernatant transferred to a glass vial with 10 µL of 2% ascorbic acid in methanol. Samples were extracted two more times with 500 µL EtOAc and the supernatant transferred to the corresponding vial and dried under vacuum. Each sample was then reconstituted with 100 µL of 45% MeOH with 0.1% FA, centrifuged, and aliquoted into an HPLC vial for analysis.
as §2

[3] = test system: P-glycoprotein (Pgp) efflux transporters; parameters: method as in PMID 33810134, PMID 25985195; details: cited from earlier work
[4] = parameters: method as in PMID 28114854; details: cited from earlier work
[5] = parameters: method as in PMID 29969512; details: cited from earlier work
[6] = female, ip, female mice, DHM 50 mg/kg IP
[7] = female, ip, female mice, DHM 50 mg/kg IP, mean ± SEM
[8] = female, po, female mice, DHM 50 mg/kg PO
[9] = female, po, female mice, DHM 50 mg/kg PO, mean ± SEM
[10] = male, ip, male mice, DHM 50 mg/kg IP
[11] = male, ip, male mice, DHM 50 mg/kg IP, mean ± SEM
[12] = male, po, male mice, DHM 50 mg/kg PO
[13] = male, po, male mice, DHM 50 mg/kg PO, mean ± SEM

## O=C1c2c(O)cc(O)cc2O[C@H](c2cc(O)c(O)c(O)c2)[C@H]1O [DHM, Dihydromyricetin]
[1]; female mice, DHM 50 mg/kg IP
  Tmax: 15 min
  half-life: 45.6 min
[1]; female mice, DHM 50 mg/kg PO
  Tmax: 15 min
  half-life: 110 min
  Serum AUC0→24: 0.7 µM·h
[1]; male mice, DHM 50 mg/kg IP
  Tmax: 15 min
  half-life: 95.4 min
[1]; male mice, DHM 50 mg/kg PO
  Tmax: 15 min
  half-life: 115 min
  Serum AUC0→24: 2.5 µM·h
[1]; DHM 50 mg/kg PO
  PO exposure levels in male mice relative to female mice: 3.5 times
[1]; female mice
  IP AUC0→24 relative to PO AUC0→24: 23.8 fold
[1]; female mice, listed as dihydromyricetin
  IP AUC0→24 relative to PO AUC0→24: 7.2 fold
[1]; [6]
  Cmax: 23.8 µM
  AUC(0-t): 17.3 µM·h
[1]; [7]
  Cmax: 23.8 µM
  AUC(0-t): 17.4 µM·h
[1]; [8]
  Cmax: 0.62 µM
  AUC(0-t): 0.728 µM·h
[1]; [9]
  Cmax: 0.623 ± 0.159 µM
  AUC(0-t): 0.728 ± 0.461 µM·h
[1]; male mice
  IP AUC0→24 relative to PO AUC0→24: 7.2 fold
[1]; male mice, listed as dihydromyricetin
  IP AUC0→24 relative to PO AUC0→24: 23.8 fold
[1]; [10]
  Cmax: 38.3 µM
  AUC(0-t): 18.1 µM·h
[1]; [11]
  Cmax: 38.3 µM
  AUC(0-t): 18.1 µM·h
[1]; [12]
  Cmax: 1.9 µM
  AUC(0-t): 2.51 µM·h
[1]; [13]
  Cmax: 1.89 ± 0.59 µM
  AUC(0-t): 2.51 ± 0.988 µM·h
[2]; 15 min post DHM 50 mg/kg PO or IP, male and female mice, range over groups
  Concentration in brain tissue: 50.9 to 861.5 nmol/g
[2]; 45 min or longer post PO or IP administration of DHM 50 mg/kg
  Detection of DHM in brain samples: not detected
[2]; female mice, DHM 50 mg/kg IP
  Brain Concentration 15 min post DHM: 864 ± 220 nmol/g
[2]; female mice, DHM 50 mg/kg PO
  Brain Concentration 15 min post DHM: 50.9 ± 2.6 nmol/g
[2]; male mice, DHM 50 mg/kg IP
  Brain Concentration 15 min post DHM: 672 ± 85 nmol/g
[2]; male mice, DHM 50 mg/kg PO
  Brain Concentration 15 min post DHM: 423 ± 66 nmol/g
[3]
  Pgp interaction: Pgp substate and inhibitor
[4]; acidic environments, similar to upper GI tract
  stability in acidic environments: stable
[4]; pH > 6
  stability in solutions with pH > 6: unstable
[5]
  cellular permeability: 1.84 ×10⁻⁶ cm/s

From paper PMC8307506, “Identification of Dihydromyricetin and Metabolites in Serum and Brain Associated with Acute Anti-Ethanol Intoxicating Effects in Mice” (International Journal of Molecular Sciences, 2021)
